Reference: article PMC2363125 (British Journal of Cancer, 1999)
Several values for one entry are separate records, joined by “and”; a condition that tells them apart may be missing. Equal values may be shown once.

Columns and labels:
L1210 cells [1] = experiment: Growth inhibition assay, CB3717 with or without thymidine and transport inhibitor, 48 h cell count; assay type: cell-based, murine
[2] = tested on: thymidine transport (nucleoside transporter) in L1210 cells; experiment: Inhibition kinetics of thymidine transport (Kt, Tmax, Dixon plot Ki)
Description: (§1) In particular, inhibition of thymidylate synthase (TS) is an attractive target for antimetabolite chemotherapy because thymine is the only nucleobase found exclusively in DNA and TS is a key enzyme, possibly the rate-limiting step, in DNA synthesis. One locus of action of 5-fluorouracil (5-FU), which is widely used for the treatment of colorectal, breast and head-and- neck cancer, is TS inhibition following its intracellular conversion to 5-FdUMP. […] Inhibition of TS results in the depletion of intracellular dTTP and, as a result of elevated dUMP levels, an accummulation of dUTP. […] In addition, release of nucleic acids from dead cells may result in high local concen- trations of salvageable nucleosides and bases in tumours. Salvage of pre-formed nucleosides is dependent on uptake across the plasma membrane into the cell. At physiological nucle- oside concentrations the principal mode of nucleoside uptake is via the es and ei equilibrative carriers, described as such on the basis of their sensitivity (es) or insensitivity (ei) to the transport inhibitor nitrobenzylmercaptopurine riboside (NBMPR). […] In addition, potentiation of the cytotoxicity of 5-FU was investigated. […] All other chemicals were obtained from Sigma unless stated otherwise. […] For growth inhibition and cytotoxicity assays, cells were adapted to grow in RPMI medium supplemented with 10% (v/v) dialysed serum (dialysed for 24 h at 4C against two changes of 9 volumes of phosphate-buffered saline (PBS) containing 1 g activated charcoal L-1 and a further two changes of 9 volumes of PBS) to remove thymidine. […] The uptake of 100 M thymidine by […] was followed at 2-second intervals over a 12-second time course in the presence or absence of inhibitor in 1% or 5% (v/v) DMSO. […] Exponentially growing L1210 cells were washed with and resus- pended in ice-cold transport buffer (130 mM sodium chloride, 5 mM potassium chloride, 1 mM magnesium chloride, 5 mM NaH2 PO4 , 10 mM glucose and 10 mM HEPES pH 7.4) at 2-4 x 10^7 cells ml-1 . […] Transport was initiated by adding 50 l of 300 M thymidine in transport buffer, containing 25 Ci ml-1 [methyl-3 H]thymidine (Sp. Act. 1.5-2.2 TBq mmol-1; Amersham, UK) and 2 Ci ml-1 [U-14 C]sucrose (17-27 GBq mmol-1; Amersham), to each tube in turn at 1-second intervals, giving final concentrations of: […] in transport buffer 5 mg ml-1 AGP, 100 M thymidine and 1% or 5% (v/v) DMSO inhibitor. […] The tubes were immediately centrifuged at 12 000g for 2 min at room temperature causing the cells to pass through the oil and into the KOH. […] Cell number and viability in each assay was determined by haemocytometer counting using trypan blue exclu- sion. After centrifugation the tubes were capped and cut in the oil layer such that the bottom portion (cells solubilized in KOH) fell into a 20 ml scintillation vial. […] The rate of thymidine uptake in the presence and absence of inhibitor was calculated by unweighted linear regres- sion analysis of thymidine uptake (pmol 10-6 cells) vs time (seconds) using GraphPad PRISMTM software (GraphPad Software Inc. San Diego, CA, USA). […] Kt and Tmax values were calculated using the equation describing a one-site binding hyperbola, fitted using GraphPad PRISM software. […] The DMSO concentration was controlled so as to be present at 1% (v/v) in the final incubation. Replicate aliquots of the remaining cell suspension were counted to obtain a time zero cell count.

L1210 cells [3] = experiment: in vitro
Description: as §1

in vitro = settings: mouse
Description: as §1

[4] = 1 μM transport inhibitor, data not shown
[5] = 10 μM transport inhibitor, 48 h, normalized to inhibitor alone

## OCCN(CCO)c1nc(N2CCCCC2)c2nc(N(CCO)CCO)nc(N3CCCCC3)c2n1 [Dipyridamole, 2,6-bis-(diethanolamino)-4,8-di-piperidino-pyrimidopyrimidine]
L1210 cells [1]; [4]
  potentiation of CB3717 growth inhibition: modest potentiation
  reversal of thymidine rescue from CB3717 growth inhibition: partial reversal
L1210 cells [1]; [5]
  % Control cell growth + 3 M CB3717, + 1 M TdR: 4%
  % Control cell growth + 3 M CB3717, no TdR: 4%
  % Control cell growth + 10 M CB3717, + 1 M TdR: 1%
  % Control cell growth + 10 M CB3717, no TdR: 0%
[2]; L1210
  type of inhibition of thymidine uptake: mixed-type inhibition
[2]; in the presence of 0.3 μM inhibitor, L1210
  apparent Tmax of thymidine transport: 8.4 pmol/10-6 cells/s
[2]; read-out: Ki for inhibition of thymidine uptake, L1210, abstract
  Ki: 280 nM
L1210 cells [3]; LC50 alone/LC50 + 1 μM inhibitor
  EF50 (enhancement factor), nolatrexed: 1.3
L1210 cells [3]; LC90 alone/LC90 + 1 μM inhibitor, listed as DP
  EF90 (enhancement factor), nolatrexed: 7.5 and 6.1
L1210 cells [3]; absence of salvageable thymidine, abstract
  reduction of nolatrexed LC90: > threefold
L1210 cells [3]; mouse
  potentiation of 5-FU cytotoxicity: Significant potentiation
In vitro
  activity at 16 h, 1 µM: 100%
